Results as given in patent publication US20240360126A1, “PYRAZOLO[3,4-B]PYRIDINE COMPOUNDS FOR THE TREATMENT OF AUTOIMMUNE DISEASE” (Hoffmann-La Roche Inc., priority 2021, published 2024).

Test system: embryonic stem cells (D3) and 3T3 fibroblasts
Assay: mouse Embryonic Stem Cell Test (mEST)
Type: cell-based
Conditions: <0.5 negative, >0.6 positive
From the text: The in vitro mouse Embryonic Stem Cell Test (mEST) assay is an implemented routine assay at Roche. The original EST was developed by Horst Spielmann and his group in 1997 as an in vitro model for the screening of embryotoxicity, based on a blastocyst-derived permanent embryonic mouse ESC (mESC) D3 cell line derived from mouse 129 strains and was validated by European Centre for the Validation of Alternative Methods (ECVAM).
We further optimized and modified the approach allowing for the application of the assay to pharmaceutical compounds.
The cytotoxicity (inhibition of growth) of 3T3 fibroblasts, which represents differentiated cells and the cytotoxicity of undifferentiated embryonic stem cells (D3) after 10 days of substance treatment serve as two assay endpoints. This is determined by the use of dehydrogenase enzymes, which are present in the intact mitochondria of living cells to convert yellow soluble substrate 3-(4,5-dimethythiazol-2-yl)-2,5-diphenyl tetrazolium bromide (MTT) into a dark blue insoluble formazan product, which gets sequestered within the cells and is detected quantitatively using an absorbance reader (570 nm) after solubilizing the cell membrane.
The third endpoint is the inhibition of differentiation of ES cells into myocards which are cardiac muscle cells after 10 days of treatment. The beating of this cells is evaluated by microscopy. […]

**Q.** With `Cc1cc(N2CC[C@@H](c3ncc(N4CCOC[C@@H](N)C4)cc3C)[C@H](C)C2)c2cnn(C)c2n1` [Example 28, (6S)-4-[6-[(3S,4R)-1-(1,6-dimethylpyrazolo[3,4-b]pyridin-4-yl)-3-methyl-4-piperidyl]-5-methyl-3-pyridyl]-1,4-oxazepan-6-amine] as the compound, how does the “Predictive scores D12_3” value read?
**A.** The value was 0.44.

**Q.** With `Cc1cc(N2CC[C@H](c3ccc(N4CCOC[C@@H](N)C4)cn3)[C@@H](C)C2)c2cnn(C)c2n1` [Example 40, (6S)-4-[6-[(3R,4S)-1-(1,6-dimethylpyrazolo[3,4-b]pyridin-4-yl)-3-methyl-4-piperidyl]-3-pyridyl]-1,4-oxazepan-6-amine] as the compound, how does the “Predictive scores D12_3” value read?
**A.** Its value is 0.36.
